Measurements as given in patent publication US6528518B2, “Treatment of depression with kappa receptor antagonists” (The McLean Hospital Corporation, priority 2000, dated 2003).
“Also recorded” adds a separate entry of the source.

Legend:
rats [1] = test: Forced swim test (FST), latency to become immobile on re-test; assay type: in vivo, rat; settings: for Latencies to become immobile on the re-test day in the FST: standard antidepressants vs vehicle (0 mg/kg), FIG. 3A; for Latencies to become immobile in the FST: kappa antagonist given ICV (norBNI 5.0 or 20 μg), FIG. 5 and 6A
Protocol: Another symptom of clinical depression that can be modeled in rats is despair, a feeling of hopelessness. Symptoms of despair can be induced in rats using the forced swim test (FST), a highly validated model used to study antidepressant treatments.
The FST is a two day procedure in which rats swim under conditions in which escape is not possible. On the first day, the rats are forced to swim for 15 minutes. The rats initially search for an escape from the water, but eventually adopt a posture of immobility in which they make only the movements necessary to keep their heads above water. Upon re-testing one day later, latencies to become immobile—an indicator of how rapidly the rats “give up” in response to a familiar stressor—are decreased, which is inferred as despair. Standard antidepressants such as desipramine (DMI) and fluoxetine (FLX) extend latencies to become immobile. Drug efficacy in this animal model is predictive of antidepressant efficacy in humans.
CREB-mediated increases in dynorphin expression within the NAc underlie the decreases in the pleasurable effects of cocaine in the place conditioning paradigm: blockade of brain kappa opioid receptors (on which dynorphin acts) eliminates CREB-induced aversion to cocaine. To determine whether disruption of dynorphin function also eliminates CREB-induced despair in the FST, brain kappa receptors were blocked with either norBNI (nor-binaltorphimine) or GNTI (5′-guanidinyl-17-(cyclopropylmethyl)-6,7-dehydro-4,5α-epoxy-3,14-dihydroxy-6,7-2′,3′-indolomorphinan). […] As with CREB-induced anhedonia, dynorphin is critically involved in CREB-induced despair. Furthermore, they indicate that disruption of CREB function in this region may have antidepressant actions.

rats [2] = test: Locomotor activity in automated activity chambers 24 hours after first FST; settings: for Activity: high doses, vs vehicle (0 mg/kg), FIG. 3B; for Locomotor effects / non-specific motor function: after ICV injection, vs vehicle control, FIG. 6B
Protocol: To examine the effects of gene transfer and antidepressant therapy on locomotor activity, groups of rats were tested for 1 hour in automated activity chambers 24 hours after the first FST.

[3] = following systemic administration; cited from earlier work
rats [4] = test: Cocaine place conditioning after HSV gene transfer into the NAc; assay type: in vivo, rat; settings: cocaine 5.0 mg/kg IP, FIG. 2B
Protocol: Place conditioning was performed in a three compartment apparatus. During screening (day 0), rats were placed in the small (12×18×33 cm) central compartment and were allowed to explore the entire apparatus for 30 minutes. The compartments differed in floor texture, wall striping, and lighting. Rats showing no baseline preference were used for the study. Rats received bilateral microinjections (2.0 μl per side) at AP+1.7 mm, Lat±2.3 mm, and DV 6.8 mm. Injections were made over 10 minutes using a 26 gauge needle.
Behavioral testing began on day 3 after vector injection. On the first conditioning trial of each day, rats received saline (1 ml/kg, i.p.) and were confined to one of the large (24×18×33 cm) side compartments of the apparatus. After three hours, rats received cocaine (1.25 mg/kg, i.p.) and were confined to the other side compartment. Three types of conditioning session were used: a one hour pairing session where the animals were placed immediately into the apparatus immediately after treatment for one hour; 15 minute pairing session where the animals were placed immediately into the apparatus immediately after treatment for 15 minutes; or a delayed pairing session where the animals were placed in the apparatus for one hour following a 15 minute delay from drug exposure. […]

[5] = humans; cited from earlier work

SMILES | Latencies to become immobile on the re-test day in the FST (rats [1]) | Activity (rats [2]) | Latencies to become immobile in the FST (rats [1]) | Penetration of the blood-brain-barrier [3] | Locomotor effects / non-specific motor function (rats [2]) | further results
CNCCCN1c2ccccc2CCc2ccccc21 [DMI, desipramine] | increased | decreased by high doses | – | – | – | –
NC(N)=Nc1ccc2[nH]c3c(c2c1)C[C@@]1(O)[C@H]2Cc4ccc(O)c5c4[C@@]1(CCN2CC1CC1)[C@H]3O5 [GNTI, 5′-guanidinyl-17-(cyclopropylmethyl)-6,7-dehydro-4,5α-epoxy-3,14-dihydroxy-6,7-2′,3′-indolomorphinan] | – | – | significantly longer latencies than the control group; also recorded: dose-dependently increased latencies to become immobile | neither compound can penetrate the blood-brain-barrier | Neither compound affected non-specific motor function | Potency relative to norBNI for increasing latencies to become immobile in the FST (rats [1]; ICV, FIG. 6A): roughly equipotent to norBNI
COC(=O)[C@H]1[C@@H](OC(=O)c2ccccc2)C[C@@H]2CC[C@H]1N2C [cocaine] | – | – | – | – | – | Place preference, time spent in cocaine-associated environments (rats [4]; HSV-CREB group): no effect; Place preference, time spent in cocaine-associated environments (rats [4]; HSV-mCREB and vehicle groups): ~600 s
CN1Cc2c(N)cccc2C(c2ccccc2)C1 (stereo not drawn) [Nomifensine] | – | – | – | – | – | Adverse reactions [5]: caused lethal allergic reactions in some people; Antidepressant efficacy in the clinic [5]: clinically effective antidepressant
Oc1ccc2c3c1O[C@H]1c4[nH]c5c(c4C[C@@]4(O)[C@@H](C2)N(CC2CC2)CC[C@]314)C[C@@]1(O)[C@H]2Cc3ccc(O)c4c3[C@@]1(CCN2CC1CC1)[C@H]5O4 [norBNI, nor-binaltorphimine] | – | – | dose-dependently increased latencies to become immobile; also recorded: significantly longer latencies than the control group | neither compound can penetrate the blood-brain-barrier | Neither compound affected non-specific motor function | –
CNCCC(Oc1ccc(C(F)(F)F)cc1)c1ccccc1 (stereo not drawn) [FLX, fluoxetine] | increased | decreased by high doses | – | – | – | –
